The source of these data is paper PMC6117411, “De novo Transcriptome Characterization of Rhodomyrtus tomentosa Leaves and Identification of Genes Involved in α/β-Pinene and β-Caryophyllene Biosynthesis” (Frontiers in Plant Science, 2018).

Holding throughout (assay type): biochemical
Common to all, as to conditions: 25 mM HEPES pH 7.0, 10 mM MgCl2, 5 mM DTT, 10 mM substrate, 30 C, 30 min

For assay [1], the target named is T1, RtTPS1 (Rhodomyrtus tomentosa, UniProt A0A385J6X8).
T1 construct: gene TPS1; 38 residues upstream of RRX8W motif; TPS-b subfamily
T1 sequence (A0A385J6X8 1-581): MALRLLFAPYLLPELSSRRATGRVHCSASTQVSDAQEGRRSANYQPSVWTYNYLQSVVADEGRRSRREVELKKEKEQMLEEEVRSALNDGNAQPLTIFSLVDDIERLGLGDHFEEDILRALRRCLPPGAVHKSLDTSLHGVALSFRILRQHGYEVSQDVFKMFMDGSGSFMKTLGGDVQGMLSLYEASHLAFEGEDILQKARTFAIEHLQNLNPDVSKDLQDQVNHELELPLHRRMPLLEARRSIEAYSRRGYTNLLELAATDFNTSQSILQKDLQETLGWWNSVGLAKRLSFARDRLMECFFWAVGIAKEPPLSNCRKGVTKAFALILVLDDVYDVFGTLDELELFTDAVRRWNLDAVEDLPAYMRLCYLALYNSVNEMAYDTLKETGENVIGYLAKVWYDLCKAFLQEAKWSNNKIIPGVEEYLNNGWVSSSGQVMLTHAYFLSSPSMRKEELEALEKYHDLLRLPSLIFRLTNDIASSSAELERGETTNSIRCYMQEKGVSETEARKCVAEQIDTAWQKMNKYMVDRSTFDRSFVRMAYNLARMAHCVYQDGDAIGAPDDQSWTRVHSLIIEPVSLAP
In words: product formation by GC-MS.

Assay [2] deals with T2, RtTPS3 (Rhodomyrtus tomentosa, UniProt A0A385J6Y9).
T2 construct: gene TPS3; 52 residues upstream of RRX8W motif; TPS-a subfamily
T2 sequence (A0A385J6Y9 1-597): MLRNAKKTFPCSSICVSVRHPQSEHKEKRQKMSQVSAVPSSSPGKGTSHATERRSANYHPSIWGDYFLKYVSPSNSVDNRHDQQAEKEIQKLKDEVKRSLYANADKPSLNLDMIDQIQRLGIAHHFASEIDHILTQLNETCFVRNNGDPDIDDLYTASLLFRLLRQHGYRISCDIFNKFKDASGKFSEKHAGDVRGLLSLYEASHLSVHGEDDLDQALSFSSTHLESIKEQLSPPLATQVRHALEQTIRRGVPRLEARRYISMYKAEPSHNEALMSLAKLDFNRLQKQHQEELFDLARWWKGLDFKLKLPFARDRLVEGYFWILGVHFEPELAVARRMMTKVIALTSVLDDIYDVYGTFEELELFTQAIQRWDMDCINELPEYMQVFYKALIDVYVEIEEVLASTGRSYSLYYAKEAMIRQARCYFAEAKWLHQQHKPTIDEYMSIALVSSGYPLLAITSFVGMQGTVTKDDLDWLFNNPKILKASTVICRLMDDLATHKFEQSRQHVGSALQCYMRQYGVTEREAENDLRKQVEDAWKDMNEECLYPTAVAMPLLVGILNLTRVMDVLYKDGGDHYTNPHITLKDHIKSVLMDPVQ
As to the kind of experiment: product formation by GC-MS.

The next assay has as its target T3, RtTPS4 (Rhodomyrtus tomentosa, UniProt A0A385J6Y5).
T3 construct: gene TPS4; 48 residues upstream of RRX8W motif; TPS-a subfamily
T3 sequence (A0A385J6Y5 1-594): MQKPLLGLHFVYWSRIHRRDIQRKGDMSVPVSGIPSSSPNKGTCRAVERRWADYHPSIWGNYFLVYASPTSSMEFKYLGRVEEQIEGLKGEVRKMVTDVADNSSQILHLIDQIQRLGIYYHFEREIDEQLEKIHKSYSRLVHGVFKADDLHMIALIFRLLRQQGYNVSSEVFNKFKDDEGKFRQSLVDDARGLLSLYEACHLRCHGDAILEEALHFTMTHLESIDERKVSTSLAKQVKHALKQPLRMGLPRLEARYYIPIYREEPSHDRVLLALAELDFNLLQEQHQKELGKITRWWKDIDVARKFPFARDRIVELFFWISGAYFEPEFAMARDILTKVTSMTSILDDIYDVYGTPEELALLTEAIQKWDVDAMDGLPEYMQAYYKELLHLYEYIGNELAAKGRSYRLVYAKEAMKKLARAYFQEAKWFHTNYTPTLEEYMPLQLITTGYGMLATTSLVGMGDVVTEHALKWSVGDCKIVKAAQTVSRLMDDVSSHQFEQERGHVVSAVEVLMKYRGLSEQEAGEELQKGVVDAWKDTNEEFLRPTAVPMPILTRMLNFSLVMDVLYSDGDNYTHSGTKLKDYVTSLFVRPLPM
In words: product formation by GC-MS and chiral GC-FID.

For the next assay, the target named is T4, RtTPS2 (Rhodomyrtus tomentosa, UniProt A0A385J6Y6).
T4 construct: gene TPS2; TPS-b subfamily
T4 sequence (A0A385J6Y6 1-599): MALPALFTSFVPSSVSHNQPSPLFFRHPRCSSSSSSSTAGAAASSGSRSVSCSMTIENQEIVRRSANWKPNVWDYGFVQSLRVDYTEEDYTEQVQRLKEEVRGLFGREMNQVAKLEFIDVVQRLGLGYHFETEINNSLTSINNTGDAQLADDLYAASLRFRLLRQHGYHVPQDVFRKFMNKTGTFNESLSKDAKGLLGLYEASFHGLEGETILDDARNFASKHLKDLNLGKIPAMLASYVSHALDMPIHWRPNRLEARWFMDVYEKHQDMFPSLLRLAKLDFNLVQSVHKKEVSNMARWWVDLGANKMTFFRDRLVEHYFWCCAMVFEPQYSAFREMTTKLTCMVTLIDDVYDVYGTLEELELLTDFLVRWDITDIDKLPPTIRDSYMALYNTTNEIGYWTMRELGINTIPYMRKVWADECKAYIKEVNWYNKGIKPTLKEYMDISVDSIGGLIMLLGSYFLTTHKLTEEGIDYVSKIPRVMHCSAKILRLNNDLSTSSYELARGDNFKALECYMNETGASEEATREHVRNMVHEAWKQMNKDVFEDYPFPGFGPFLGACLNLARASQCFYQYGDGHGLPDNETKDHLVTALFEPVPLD
As to the kind of experiment: product formation by GC-MS and chiral GC-FID.

Assay [3] has as its target T2, RtTPS3. In words: product formation by GC-MS and chiral GC-FID.
In assay [4] the target is T1, RtTPS1. In words: product formation by GC-MS and chiral GC-FID.

In the case of `CC(C)=CCC/C(C)=C/CC/C(C)=C/COP(=O)(O)OP(=O)(O)O` [FPP], the “product formation by GC-MS” value is “RtTPS1 and RtTPS3 are also active with FPP, producing β-caryophyllene” at RtTPS1 [1]; “RtTPS1 and RtTPS3 are also active with FPP, producing β-caryophyllene” on RtTPS3 [2].

On to `CC(C)=CCC/C(C)=C/COP(=O)(O)OP(=O)(O)O` [GPP], for which the “product formation by GC-MS and chiral GC-FID” value at RtTPS4 is “RtTPS1-4 produce mainly (+)-α-pinene and (+)-β-pinene”; at RtTPS2, “RtTPS1-4 produce mainly (+)-α-pinene and (+)-β-pinene”; at RtTPS3 [3], “RtTPS1-4 produce mainly (+)-α-pinene and (+)-β-pinene”; at RtTPS1 [4] it was “RtTPS1-4 produce mainly (+)-α-pinene and (+)-β-pinene”.
